# Values quoted from earlier work, collected in patent US20150246117A1, “TREATMENT OF TYPE 2 DIABETES AND RELATED CONDITIONS” (priority 2012, published 2015).
# Read-outs that look alike come from different tables or passages of the source.
# Columns and labels:
# [1] = for hypoglycemia in combination therapy: combined with sulfonylurea, insulin secretagogue or insulin
# CYP3A4/5 = details: coadministration with strong CYP3A4/5 inhibitors (e.g., ketoconazole)
# [2] = in vivo
# [3] = co-administration of 100 mg sitagliptin for 10 days
compound,measurement,setting,value
N[C@@H](CC(=O)N1CCc2c(nc(C(F)(F)F)nc2C(F)(F)F)C1)CN1CC(F)(F)CCC1=O [Gemigliptin],Half-life,in vivo,17 to 21 h
same,adverse events / tolerability in clinical studies,"[1]; human, in vivo",No serious adverse events recorded.
COc1ccc2cc3[n+](cc2c1OC)CCc1cc2c(cc1-3)OCO2 [berberine],Half-life,in vivo,3 to 4 h
same,adverse events / tolerability in clinical studies,"[1]; human, in vivo",Transient gastrointestinal adverse
CC#CCn1c(N2CCC[C@@H](N)C2)nc2c1c(=O)n(Cc1nc(C)c3ccccc3n1)c(=O)n2C [linagliptin],Half-life,after 5 mg dose,>100 h after 5 mg
same,hypoglycemia in combination therapy,[1],Hypoglycemia was more commonly
CCCCCCCCCCCCCCCC(=O)N[C@@H](CCC(=O)NCCCC[C@H](NC(=O)[C@H](C)NC(=O)[C@H](C)NC(=O)[C@H](CCC(N)=O)NC(=O)CNC(=O)[C@H](CCC(=O)O)NC(=O)[C@H](CC(C)C)NC(=O)[C@H](Cc1ccc(O)cc1)NC(=O)[C@H](CO)NC(=O)[C@H](CO)NC(=O)[C@@H](NC(=O)[C@H](CC(=O)O)NC(=O)[C@H](CO)NC(=O)[C@@H](NC(=O)[C@H](Cc1ccccc1)NC(=O)[C@@H](NC(=O)CNC(=O)[C@H](CCC(=O)O)NC(=O)[C@H](C)NC(=O)[C@@H](N)Cc1cnc[nH]1)[C@@H](C)O)[C@@H](C)O)C(C)C)C(=O)N[C@@H](CCC(=O)O)C(=O)N[C@@H](Cc1ccccc1)C(=O)N[C@H](C(=O)N[C@@H](C)C(=O)N[C@@H](Cc1c[nH]c2ccccc12)C(=O)N[C@@H](CC(C)C)C(=O)N[C@H](C(=O)N[C@@H](CCCNC(=N)N)C(=O)NCC(=O)N[C@@H](CCCNC(=N)N)C(=O)NCC(=O)O)C(C)C)[C@@H](C)CC)C(=O)O [liraglutide],"Immunogenicity-related events, including urticaria",[1]; treated patients in clinical trials (comparator-treated 0.4%),Victoza-treated patients (0.8%) than among
O=C(CN[C@@H]1CCNC1)N1CCC[C@H]1B(O)O [dutogliptin],Half-life,in vivo,10 to 13 h
N#C[C@@H]1C[C@@H]2C[C@@H]2N1C(=O)[C@@H](N)C12CC3CC(CC(O)(C3)C1)C2 [saxagliptin],Half-life,after oral 5 mg,2.5 h after
same,saxagliptin concentrations,CYP3A4/5,increases
same,Peripheral edema,[1]; combination with a thiazolidinedione (TZD) vs placebo and TZD,Peripheral edema was reported more
Dulaglutide,adverse events / tolerability in clinical studies,"[1]; human, in vivo",Gastrointestinal adverse events reported
taspoglutide,patients showing antibodies against the drug,"[1]; human, in vivo",(compared to exenatide); 49% of patients
N#C[C@@H]1CCCN1C(=O)CNC12CC3CC(CC(O)(C3)C1)C2 [vildagliptin],"excretion in milk, animal studies",[2],excretion of vildagliptin
Cn1c(=O)cc(N2CCC[C@@H](N)C2)n(Cc2ccccc2C#N)c1=O [Alogliptin],Half-life,in vivo,12.4 to 21.4 h
same,adverse events / tolerability in clinical studies,"[1]; human, in vivo",The agent is relatively well tolerated
same,"rate of skin events, primarily pruritus","[1]; human, in vivo",finding being a marginally higher rate
N[C@@H](CC(=O)N1CCn2c(nnc2C(F)(F)F)C1)Cc1cc(F)c(F)cc1F [sitagliptin],Half-life,after oral,12.4 h after
same,increase in area under the curve (AUC) of digoxin,[3],"curve (AUC, 11%)"
same,"fertility / fetal harm, animal studies or animal data",[2],JANUVIA did not impair
same,hypoglycemia in combination therapy,[1],There is an increased risk of
